The source of these data is US9957274B2, “Indane inhibitors of EED and methods of their use” (AbbVie Inc., priority 2016, dated 2018).

Molecules are shown by their SMILES.

Experiment [1] deals with H3K27me3 in OCILY19 cells. Nature of the experiment: H3K27me3 AlphaLISA assay in OCILY19 cells. In kind it is cell-based. Conditions: Homo sapiens, OCI-LY19, 144 h, 6 days with compound, read-out: OCILY-19 IC50. The method, then:
(§1) 5,000 cells were plated into each well of 96-well Corning CellBing cell culture plates and incubated overnight at 37° C. in a humidified CO2 incubator. […] The cell culture plates were then incubated for 6 more days. H3K27me3 AlphaLISA assay was performed on the cell culture samples by using AlphaLISAR® H3K27me3 Cellular Detection Kit (PerkinElmer) and 96-well white half-area plates (PerkinElmer).

A further experiment concerns Pfeiffer cells. The experiment can be described thus: CTG cell viability assay (CellTiter-Glo). In kind it is cell-based. Conditions: Homo sapiens, 240 h; Pfeiffer cells, 10 days with compound, CellTiter-Glo; read-out: Cell Proliferation IC50. The method, then:
1,000 cells were plated into each well of 96-well Corning CellBing cell culture plates and incubated overnight at 37° C. in a humidified CO2 incubator. […] The cell culture plates were then incubated for 10 more days. CTG cell viability assay was performed on the cell culture samples by using CellTiter-Glo® Luminescent Cell Viability Assay Kit (Promega).
For orientation: Cellular ATP, detected with luciferase, serves as a proxy for viable cell number.

For the next experiment, the system named is H3K27me3 in G401 cells. The experiment can be described thus: H3K27me3 AlphaLISA assay in G401 cells. Type of experiment: cell-based. To be noted: Homo sapiens, G-401, 144 h, 6 days with compound. As to the method:
as §1, with “G401 cells (ATCC catalog # CRL-1441) were maintained in McCoy's 5a medium (ATCC) supplemented with 10% heat-inactivated FBS (HyClone) at 37° C. in a humidified CO2 incubator. OCILY19 cells (DSMZ catalog #ACC 528) were maintained in IMDM (Invitrogen) supplemented with 10% human serum (Sigma) at 37° C. in a humidified CO2 incubator. 5,000” for “5,000”
For orientation: Alpha assays give light when donor and acceptor beads are brought close together.

For another experiment, the target named is EED (Homo sapiens, UniProt O75530). Nature of the experiment: EED TR-FRET Binding Assay (modified LanthaScreen competition assay). The method, boiled down: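 Competition binding in a modified LanthaScreen format, in 20 mM Tris-HCl pH 7.5, 200 mM NaCl, 0.01% Tween-20, 10 uM DTT and 0.05% BSA. Reactions ran 1 hour at 25° C before TR-FRET detection.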
EED, sequence (O75530 whole entry): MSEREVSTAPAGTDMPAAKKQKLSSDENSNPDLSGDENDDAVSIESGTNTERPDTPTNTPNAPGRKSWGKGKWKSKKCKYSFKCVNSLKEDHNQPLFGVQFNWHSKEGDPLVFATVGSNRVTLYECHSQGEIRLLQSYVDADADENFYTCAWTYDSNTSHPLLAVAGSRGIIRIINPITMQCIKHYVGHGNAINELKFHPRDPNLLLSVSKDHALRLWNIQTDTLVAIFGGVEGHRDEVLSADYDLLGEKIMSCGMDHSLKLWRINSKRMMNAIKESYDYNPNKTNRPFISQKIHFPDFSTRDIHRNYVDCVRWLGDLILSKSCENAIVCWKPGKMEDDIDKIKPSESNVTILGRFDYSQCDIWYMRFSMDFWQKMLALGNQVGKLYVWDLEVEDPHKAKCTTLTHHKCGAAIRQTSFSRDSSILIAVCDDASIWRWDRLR

On to `CN(C)C(=O)c1ccc2c([C@H]3CN(C4CCc5cccc(F)c54)C[C@@H]3N(C)C)cn(C)c2c1` (mixture of isomers) [Example 87, rac-3-[(3S,4R)-4-(dimethylamino)-1-(7-fluoro-2,3-dihydro-1H-inden-1-yl)pyrrolidin-3-yl]-N,N,1-trimethyl-1H-indole-6-carboxamide], for which the IC50 stood at 178 nM in experiment [1], 94.1 nM in the experiment with Pfeiffer cells, 62.6 nM in the experiment on H3K27me3 in G401 cells and 0.481 nM at EED.

As for `CN(C)[C@H]1CN(C2CCc3cccc(F)c32)C[C@@H]1c1cn(C)c2c(C(=O)N3CC(F)C3)cccc12` (mixture of isomers) [Example 103, rac-{3-[(3S,4R)-4-(dimethylamino)-1-(7-fluoro-2,3-dihydro-1H-inden-1-yl)pyrrolidin-3-yl]-1-methyl-1H-indol-7-yl}(3-fluoroazetidin-1-yl)methanone], the IC50 is 183 nM in experiment [1], 64.8 nM in the experiment with Pfeiffer cells, 30.6 nM in the experiment on H3K27me3 in G401 cells and 1.01 nM on EED.

For the compound `CN(C)[C@H]1CN(C2CCc3cccc(F)c32)C[C@@H]1c1cn(C)c2c(C(=O)N3CC(O)C3)cccc12` (mixture of isomers) [Example 106, rac-{3-[(3S,4R)-4-(dimethylamino)-1-(7-fluoro-2,3-dihydro-1H-inden-1-yl)pyrrolidin-3-yl]-1-methyl-1H-indol-7-yl}(3-hydroxyazetidin-1-yl)methanone], the IC50 in experiment [1] was determined as 69.5 nM; in the experiment with Pfeiffer cells, 74.9 nM; in the experiment on H3K27me3 in G401 cells it was 34.4 nM; at EED it was 0.782 nM.

Turning to `CN(C)[C@H]1CN(C2CCc3cccc(F)c32)C[C@@H]1c1cn(C)c2cc(C(=O)N3CC(O)C3)ccc12` (mixture of isomers) [Example 107, rac-{3-[(3S,4R)-4-(dimethylamino)-1-(7-fluoro-2,3-dihydro-1H-inden-1-yl)pyrrolidin-3-yl]-1-methyl-1H-indol-6-yl}(3-hydroxyazetidin-1-yl)methanone], the IC50 in experiment [1] was determined as 497 nM; in the experiment on Pfeiffer cells, 284 nM; with H3K27me3 in G401 cells it was 84 nM; on EED it was 1.08 nM.

Take `CN(C)[C@H]1CN(C2CCc3cccc(F)c32)C[C@@H]1c1cn(C)c2c(C(=O)N3CC(S(C)(=O)=O)C3)cccc12` (mixture of isomers) [Example 110, rac-{3-[(3S,4R)-4-(dimethylamino)-1-(7-fluoro-2,3-dihydro-1H-inden-1-yl)pyrrolidin-3-yl]-1-methyl-1H-indol-7-yl}[3-(methanesulfonyl)azetidin-1-yl]methanone]: the IC50 in experiment [1] was 379 nM; with Pfeiffer cells, 111 nM; with H3K27me3 in G401 cells it was 225 nM; at EED, 1.05 nM.

Take `CN(C)[C@H]1CN(C2CCc3cccc(F)c32)C[C@@H]1c1cn(C)c2c(C(=O)N3CCNCC3)cccc12` (mixture of isomers) [Example 119, rac-{3-[(3S,4R)-4-(dimethylamino)-1-(7-fluoro-2,3-dihydro-1H-inden-1-yl)pyrrolidin-3-yl]-1-methyl-1H-indol-7-yl}(piperazin-1-yl)methanone]: the IC50 stood at 214 nM in experiment [1], 247 nM with Pfeiffer cells, 120 nM with H3K27me3 in G401 cells and 1.99 nM at EED.

Consider `CN(C)[C@H]1CN(C2CCc3cccc(F)c32)C[C@@H]1c1cn(C)c2c(C(=O)N3CCN(S(=O)(=O)N(C)C)CC3)cccc12` (mixture of isomers) [Example 124, rac-4-{3-[(3S,4R)-4-(dimethylamino)-1-(7-fluoro-2,3-dihydro-1H-inden-1-yl)pyrrolidin-3-yl]-1-methyl-1H-indole-7-carbonyl}-N,N-dimethylpiperazine-1-sulfonamide], for which the IC50 in experiment [1] is 207 nM; in the experiment with Pfeiffer cells, 349 nM; in the experiment on H3K27me3 in G401 cells it was 86.4 nM; at EED it was 1.56 nM.

As for `CN1CCN(c2cccc3c([C@H]4CN(C5CCc6cccc(F)c65)C[C@@H]4N(C)C)cn(C)c23)CC1=O` (mixture of isomers) [Example 129, rac-4-{3-[(3S,4R)-4-(dimethylamino)-1-(7-fluoro-2,3-dihydro-1H-inden-1-yl)pyrrolidin-3-yl]-1-methyl-1H-indol-7-yl}-1-methylpiperazin-2-one], the IC50 in experiment [1] amounted to 102 nM; in the experiment with Pfeiffer cells, 98.1 nM; in the experiment with H3K27me3 in G401 cells, 186 nM; on EED, 0.739 nM.

Turning to `CN(C)C(=O)N1CCN(c2cccc3c([C@H]4CN(C5CCc6cccc(F)c65)C[C@@H]4N(C)C)cn(C)c23)CC1` (mixture of isomers) [Example 131, rac-4-{3-[(3S,4R)-4-(dimethylamino)-1-(7-fluoro-2,3-dihydro-1H-inden-1-yl)pyrrolidin-3-yl]-1-methyl-1H-indol-7-yl}-N,N-dimethylpiperazine-1-carboxamide], the IC50 in experiment [1] was determined as 158 nM; with Pfeiffer cells it was 122 nM; in the experiment with H3K27me3 in G401 cells it was 57.3 nM; at EED, 0.406 nM.

On to `CN(C)[C@H]1CN(C2CCc3cccc(F)c32)C[C@@H]1c1cn(C)c2c(C(=O)N3CCN(S(=O)(=O)c4cncn4C)CC3)cccc12` (mixture of isomers) [Example 135, rac-{3-[(3S,4R)-4-(dimethylamino)-1-(7-fluoro-2,3-dihydro-1H-inden-1-yl)pyrrolidin-3-yl]-1-methyl-1H-indol-7-yl}[4-(1-methyl-1H-imidazole-5-sulfonyl)piperazin-1-yl]methanone], for which the IC50 in experiment [1] was determined as 719 nM; in the experiment with Pfeiffer cells it was 115 nM; in the experiment on H3K27me3 in G401 cells, 108 nM; on EED, 1.45 nM.

`Cc1n[nH]c(C)c1S(=O)(=O)N1CCN(C(=O)c2cccc3c([C@H]4CN(C5CCc6cccc(F)c65)C[C@@H]4N(C)C)cn(C)c23)CC1` (mixture of isomers) [Example 136, rac-{3-[(3S,4R)-4-(dimethylamino)-1-(7-fluoro-2,3-dihydro-1H-inden-1-yl)pyrrolidin-3-yl]-1-methyl-1H-indol-7-yl}[4-(3,5-dimethyl-1H-pyrazole-4-sulfonyl)piperazin-1-yl]methanone]: the IC50 in experiment [1] came to 617 nM; in the experiment with Pfeiffer cells, 1520 nM; in the experiment with H3K27me3 in G401 cells, 332 nM; at EED it was 2.05 nM.

For the compound `CN(C)[C@H]1CN(C2CCc3cccc(F)c32)C[C@@H]1C1CCN(c2cccnc2)CC1` (mixture of isomers) [Example 149, rac-(3R,4S)-1-(7-fluoro-2,3-dihydro-1H-inden-1-yl)-N,N-dimethyl-4-[1-(pyridin-3-yl)piperidin-4-yl]pyrrolidin-3-amine], the IC50 in experiment [1] was 1140 nM; in the experiment with Pfeiffer cells it was 970 nM; in the experiment with H3K27me3 in G401 cells it was 636 nM; on EED, 2.58 nM.

For the compound `CN(C)[C@H]1CN(C2CCc3cccc(F)c32)C[C@@H]1C1CCN(c2ccccn2)CC1` (mixture of isomers) [Example 152, rac-(3R,4S)-1-(7-fluoro-2,3-dihydro-1H-inden-1-yl)-N,N-dimethyl-4-[1-(pyridin-2-yl)piperidin-4-yl]pyrrolidin-3-amine], the IC50 came out at 1790 nM in experiment [1], 804 nM with Pfeiffer cells, 476 nM with H3K27me3 in G401 cells and 2.04 nM at EED.

Turning to `CNC(=O)c1ccc(N2CCC([C@H]3CN(C4CCc5cccc(F)c54)C[C@@H]3N(C)C)CC2)nc1` (mixture of isomers) [Example 154, rac-6-{4-[(3S,4R)-4-(dimethylamino)-1-(7-fluoro-2,3-dihydro-1H-inden-1-yl)pyrrolidin-3-yl]piperidin-1-yl}-N-methylpyridine-3-carboxamide], the IC50 amounted to 493 nM in experiment [1], 455 nM in the experiment on Pfeiffer cells, 372 nM with H3K27me3 in G401 cells and 1.98 nM on EED.

With `CN(C)[C@H]1CN(C2CCc3cccc(F)c32)C[C@@H]1c1nn(C)c2ccccc12` (mixture of isomers) [Example 156, rac-(3R,4S)-1-(7-fluoro-2,3-dihydro-1H-inden-1-yl)-N,N-dimethyl-4-(1-methyl-1H-indazol-3-yl)pyrrolidin-3-amine], the IC50 stood at 293 nM in experiment [1], 375 nM with Pfeiffer cells, 212 nM in the experiment with H3K27me3 in G401 cells and 1.41 nM at EED.

As to `CN(C)[C@@H]1CN(C2CCc3cccc(F)c32)C[C@H]1c1ccc(N2CCN(C(=O)CS(C)(=O)=O)CC2)nc1` (mixture of isomers) [Example 157, rac-1-(4-{5-[(3R,4S)-4-(dimethylamino)-1-(7-fluoro-2,3-dihydro-1H-inden-1-yl)pyrrolidin-3-yl]pyridin-2-yl}piperazin-1-yl)-2-(methanesulfonyl)ethan-1-one], the IC50 turned out to be 205 nM in experiment [1], 354 nM in the experiment on Pfeiffer cells, 227 nM in the experiment on H3K27me3 in G401 cells and 1.4 nM on EED.

For `CN(C)[C@@H]1CN(C2CCc3cccc(F)c32)C[C@H]1c1ccc(-c2cnn(CC(N)=O)c2)nc1` (mixture of isomers) [Example 158, rac-2-(4-{5-[(3R,4S)-4-(dimethylamino)-1-(7-fluoro-2,3-dihydro-1H-inden-1-yl)pyrrolidin-3-yl]pyridin-2-yl}-1H-pyrazol-1-yl)acetamide], the IC50 was determined as 87.2 nM in experiment [1], 385 nM in the experiment on Pfeiffer cells, 127 nM in the experiment with H3K27me3 in G401 cells and 1.37 nM at EED.
